Reference: US10730882B2, “2-aminoquinazoline derivatives as P70S6 kinase inhibitors” (SENTINEL ONCOLOGY LIMITED, priority 2015, dated 2020)
Where two headings read alike, the source gives them in different places.

Tests used:
p70S6K (h) = p70S6K (h) (Homo sapiens (Human), UniProt P23443); assay: p70S6K (h) kinase assay (radiometric, [γ-33P-ATP]); assay type: biochemical; settings: read-out: (a) p70S6K1 IC50
Procedure: (a) Determination of p70S6 Inhibitory Activity
The ability of compounds of the invention to inhibit P70S6 kinase may be determined using the protocol below.
20 mM MOPS, 1 mM EDTA, 0.01% Brij-35, 5% Glycerol, 0.1% b-mercaptoethanol, 1 mg/mL BSA
In a final reaction volume of 25 μL, p70S6K (h) (5-10 mU) is incubated with 8 mM MOPS pH 7.0, 0.2 mM EDTA, 100 μM KKRNRTLTV, 10 mM Mg acetate and [γ-33P-ATP](specific activity approx. 500 cpm/pmol, concentration as required). The reaction is initiated by the addition of the MgATP mix. After incubation for 40 minutes at room temperature, the reaction is stopped by the addition of 5 μL of a 3% phosphoric acid solution. 10 μL of the reaction mixture is then spotted onto a P30 filtermat and washed three times for 5 minutes in 75 mM phosphoric acid and once in methanol prior to drying and scintillation counting.

[1] = in vivo cassette mouse model: brain and plasma concentrations following oral dosing; settings: male CD-1 mice, 2.5 mg/kg per compound; for Kp at 3 h: brain and plasma, read-out: (b) Brain:Plasma ratio at 3 hours
Procedure: (b) Evaluation of Brain and Plasma Concentrations in an In Vivo Cassette Mouse Model
The compounds of this invention were evaluated in an in vivo cassette mouse model to determine brain and plasma concentrations following oral dosing. This is an industry-standard and recognised means to assess brain penetration of small molecules (for recent literature article, refer to: in vitro permeability analysis, pharmacokinetic and brain distribution study in mice of imperatorin, isoimperatorin and cnidilin in Radix Angelicae Dahuricae, Fitoterapia, Volume 85, March 2013, Pages 144-153). It is also recognised that higher brain concentrations (and higher ratios of brain:plasma concentration) lead to greater exposure in the brain—this is clearly advantageous if the brain is the site of action.
For a single cassette study, male CD-1 mice were used (n=3 per timepoint, three timepoints: 1.0 hr, 3.0 hr and 8.0 hr).
5 compounds were dosed PO per cassette (dose level 2.5 mg/kg per compound, dose conc. 0.25 mg/ml, dose volume 10.0 ml/kg).
Formulation used to solubilize compounds: 10% DMSO/90% hydroxypropyl-β-cyclodextrin (20% w/v aqueous)
Sampling was terminal and plasma and brain matrices were generated. To prepare plasma samples, protein was precipitated using acetonitrile. To prepare brain samples, homogenisation and protein precipitation was performed with acetonitrile. Samples were analysed using HPLC-TOF MS using electrospray ionisation.
The brain and plasma concentrations and brain-plasma ratios observed for the compounds tested are set out in the table below.

[2] = brain, read-out: (b) Brain conc. at 3 hours
[3] = plasma, read-out: (b) Plasma conc. at 3 hours

Sequence of p70S6K (h) (P23443 whole entry): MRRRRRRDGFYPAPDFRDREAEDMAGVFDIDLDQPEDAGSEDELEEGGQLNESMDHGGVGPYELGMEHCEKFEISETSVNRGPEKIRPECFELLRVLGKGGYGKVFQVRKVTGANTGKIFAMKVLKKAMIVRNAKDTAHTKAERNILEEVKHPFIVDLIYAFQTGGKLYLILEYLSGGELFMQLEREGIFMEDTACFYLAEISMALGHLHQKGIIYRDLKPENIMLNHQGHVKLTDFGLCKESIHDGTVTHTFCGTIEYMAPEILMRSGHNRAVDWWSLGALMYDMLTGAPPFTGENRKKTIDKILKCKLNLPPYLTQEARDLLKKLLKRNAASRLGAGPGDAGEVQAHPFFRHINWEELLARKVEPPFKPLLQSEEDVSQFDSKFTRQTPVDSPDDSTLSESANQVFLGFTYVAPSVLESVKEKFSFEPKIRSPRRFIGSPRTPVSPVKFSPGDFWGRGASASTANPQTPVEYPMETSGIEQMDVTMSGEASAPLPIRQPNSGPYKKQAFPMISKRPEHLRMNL

Row | SMILES | IC50 (p70S6K (h)) [nM] | other results
1 | OCC[C@@H](Nc1ncc2cc(-c3ncnc4[nH]ncc34)ccc2n1)c1ccccc1 [Example 31, (R)-3-Phenyl-3-[6-(1H-pyrazolo[3,4-d]pyrimidin-4-yl)-quinazolin-2-ylamino]-propan-1-ol] | 10 | –
2 | C[C@H](c1ccccc1)N(C)c1ncc2cc(-c3ncnc4[nH]ncc34)ccc2n1 [Example 8, ((R)-1-Phenyl-ethyl)-[6-(1H-pyrazolo[3,4-d]pyrimidin-4-yl)-quinazolin-2-yl]-methylamine] | 108 | –
3 | OC[C@@H](Nc1ncc2cc(-c3ncnc4[nH]ncc34)ccc2n1)c1ccccc1 [Example 5, ((S)-2-Hydroxy-1-phenyl-ethyl)-[6-(1H-pyrazolo[3,4-d]pyrimidin-4-yl)-quinazolin-2-yl]-amine] | 24 | –
4 | CN(Cc1ccc(F)cc1)c1ncc2cc(-c3ncnc4[nH]ncc34)ccc2n1 [Example 6, (4-Fluorobenzyl)-[6-(1H-pyrazolo[3,4-d]pyrimidin-4-yl)-quinazolin-2-yl]-methylamine] | 147 | –
5 | Clc1cccc(CNc2ncc3cc(-c4ncnc5[nH]ncc45)ccc3n2)c1 [Example 11, (3-Chlorobenzyl)-[6-(1H-pyrazolo[3,4-d]pyrimidin-4-yl)-quinazolin-2-yl]-amine] | 145 | –
6 | C[C@@H](Nc1ncc2cc(-c3ncnc4[nH]ncc34)ccc2n1)c1ccc(F)cc1 [Example 4, ((R)-1-(4-Fluoro-phenyl)-ethyl)-[6-(1H-pyrazolo[3,4-d]pyrimidin-4-yl)-quinazolin-2-yl]-amine] | 22 | Kp at 3 h [1]: 2.2; concentration at 3 h [1, 2]: 1510 nM; concentration at 3 h [1, 3]: 680 nM
7 | COc1cccc(CNc2ncc3cc(-c4ncnc5[nH]ncc45)ccc3n2)c1 [Example 23, (3-Methoxy-benzyl)-[6-(1H-pyrazolo[3,4-d]pyrimidin-4-yl)-quinazolin-2-yl]-amine] | 118 | –
8 | c1ccc(CN(C[C@@H]2COCCN2)c2ncc3cc(-c4ncnc5[nH]ncc45)ccc3n2)cc1 [Example 17, Benzyl-(R)-1-morpholin-3-ylmethyl-[6-(1H-pyrazolo[3,4-d]pyrimidin-4-yl)-quinazolin-2-yl]-amine] | 110 | –
9 | c1ccc(CN(C[C@H]2COCCN2)c2ncc3cc(-c4ncnc5[nH]ncc45)ccc3n2)cc1 [Example 18, Benzyl-(S)-1-morpholin-3-ylmethyl-[6-(1H-pyrazolo[3,4-d]pyrimidin-4-yl)-quinazolin-2-yl]-amine] | 25 | –
10 | C[C@@H](Nc1ncc2cc(-c3ncnc4[nH]ccc34)ccc2n1)c1ccccc1 [Example 14, ((R)-1-Phenyl-ethyl)-[6-(7H-pyrrolo[2,3-d]pyrimidin-4-yl)-quinazolin-2-yl]-amine] | 57 | –
11 | C[C@@H](Nc1ncc2cc(-c3ccnc4[nH]ncc34)ccc2n1)c1ccccc1 [Example 13, ((R)-1-Phenyl-ethyl)-[6-(1H-pyrazolo[3,4-b]pyridin-4-yl)-quinazolin-2-yl]-amine] | 43 | –
12 | C[C@@H](Nc1ncc2cc(-c3ncnc4[nH]cc(C#N)c34)ccc2n1)c1ccccc1 [Example 34, 4-[2-((R)-1-Phenyl-ethylamino)-quinazolin-6-yl]-7H-pyrrolo[2,3-d]pyrimidine-5-carbonitrile] | 346 | –
13 | Cc1n[nH]c2ncnc(-c3ccc4nc(N[C@H](C)c5ccccc5)ncc4c3)c12 [Example 22, [6-(3-Methyl-1H-pyrazolo[3,4-d]pyrimidin-4-yl)-quinazolin-2-yl]-((R)-1-phenyl-ethyl)-amine] | 131 | –
14 | C[C@@H](Nc1ncc2cc(-c3ncnc4[nH]ncc34)ccc2n1)c1ccccc1O [Example 35, 2-{(R)-1-[6-(1H-Pyrazolo[3,4-d]pyrimidin-4-yl)-quinazolin-2-ylamino]-ethyl}-phenol] | 20 | –
15 | c1ccc(CNc2ncc3cc(-c4ncnc5[nH]ncc45)ccc3n2)cc1 [Example 21, Benzyl-[6-(1H-pyrazolo[3,4-d]pyrimidin-4-yl)-quinazolin-2-yl]-amine] | 71 | –

The next lines start with results.

Row | IC50 (p70S6K (h)) [nM] | SMILES | other results
16 | 55 | Fc1ccc(CNc2ncc3cc(-c4ncnc5[nH]ncc45)ccc3n2)cc1 [Example 9, (4-Fluorobenzyl)-[6-(1H-pyrazolo[3,4-d]pyrimidin-4-yl)-quinazolin-2-yl]-amine] | –
17 | 10 | C[C@@H](Nc1ncc2cc(-c3ncnc4[nH]ncc34)ccc2n1)c1ccc(F)c(F)c1 [Example 19, [(R)-1-(3,4-Difluoro-phenyl)-ethyl]-[6-(1H-pyrazolo[3,4-d]pyrimidin-4-yl)-quinazolin-2-yl]-amine] | Kp at 3 h [1]: 4; concentration at 3 h [1, 2]: 2420 nM; concentration at 3 h [1, 3]: 600 nM
18 | 67 | CS(=O)(=O)Nc1cccc(CNc2ncc3cc(-c4ncnc5[nH]ncc45)ccc3n2)c1 [Example 26, N-(3-{[6-(1H-Pyrazolo[3,4-d]pyrimidin-4-yl)-quinazolin-2-ylamino]-methyl}-phenyl)-methanesulfonamide] | –
19 | 41 | COc1cccc([C@@H](C)Nc2ncc3cc(-c4ncnc5[nH]ncc45)ccc3n2)c1 [Example 27, [(R)-1-(3-Methoxy-phenyl)-ethyl]-[6-(1H-pyrazolo[3,4-d]pyrimidin-4-yl)-quinazolin-2-yl]-amine] | –
20 | 21 | C[C@@H](Nc1ncc2cc(-c3ncnc4[nH]ncc34)ccc2n1)c1cccc(F)c1 [Example 3, ((R)-1-(3-Fluoro-phenyl)-ethyl)-[6-(1H-pyrazolo[3,4-d]pyrimidin-4-yl)-quinazolin-2-yl]-amine] | Kp at 3 h [1]: 3.7; concentration at 3 h [1, 2]: 1680 nM; concentration at 3 h [1, 3]: 460 nM
21 | 204 | Fc1ccccc1CNc1ncc2cc(-c3ncnc4[nH]ncc34)ccc2n1 [Example 24, (2-Fluoro-benzyl)-[6-(1H-pyrazolo[3,4-d]pyrimidin-4-yl)-quinazolin-2-yl]-amine] | –
22 | 167 | C[C@@H](Nc1ncc2cc(-c3ncnc4[nH]cnc34)ccc2n1)c1ccccc1 [Example 20, ((R)-1-Phenyl-ethyl)-[6-(9H-purin-6-yl)-quinazolin-2-yl]-amine] | –
23 | > 3000 | C[C@H](Nc1ncc2cc(-c3ncnc4[nH]ncc34)ccc2n1)c1ccccc1 [Example 29, ((S)-1-Phenyl-ethyl)-[6-(1H-pyrazolo[3,4-d]pyrimidin-4-yl)-quinazolin-2-yl]-amine] | –
24 | 106 | CN(C)CCN(Cc1ccccc1)c1ncc2cc(-c3ncnc4[nH]ncc34)ccc2n1 [Example 16, N-Benzyl-N′,N′-dimethyl-N-[6-(1H-pyrazolo[3,4-d]pyrimidin-4-yl)-quinazolin-2-yl]-ethane-1,2-diamine] | –
25 | 30 | C[C@@H](Nc1ncc2cc(-c3ncnc4[nH]ncc34)ccc2n1)c1cccc(Cl)c1 [Example 2, ((R)-1-(3-Chloro-phenyl)-ethyl)-[6-(1H-pyrazolo[3,4-d]pyrimidin-4-yl)-quinazolin-2-yl]-amine] | –
26 | 28 | C[C@@H](Nc1ncc2cc(-c3ncnc4[nH]ncc34)ccc2n1)c1c(F)cccc1F [Example 33, [(R)-1-(2,6-Difluoro-phenyl)-ethyl]-[6-(1H-pyrazolo[3,4-d]pyrimidin-4-yl)-quinazolin-2-yl]-amine] | –
27 | 49 | Fc1ccc(CNc2ncc3cc(-c4ncnc5[nH]ncc45)ccc3n2)cc1F [Example 25, (3,4-Difluoro-benzyl)-[6-(1H-pyrazolo[3,4-d]pyrimidin-4-yl)-quinazolin-2-yl]-amine] | –
28 | 97 | C[C@@H](Nc1ncc2cc(-c3ccnc4[nH]ccc34)ccc2n1)c1ccccc1 [Example 15, ((R)-1-Phenyl-ethyl)-[6-(1H-pyrrolo[2,3-b]pyridin-4-yl)-quinazolin-2-yl]-amine] | –
29 | > 3000 | C[C@@H](Nc1ncc2ccc(-c3ncnc4[nH]ncc34)cc2n1)c1ccccc1 [Example 12, ((R)-1-Phenyl-ethyl)-[7-(1H-pyrazolo[3,4-d]pyrimidin-4-yl)-quinazolin-2-yl]-amine] | –
30 | 23 | C[C@@H](Nc1ncc2cc(-c3ncnc4[nH]ncc34)ccc2n1)c1cccc(NS(C)(=O)=O)c1 [Example 30, N-(3-{(R)-1-[6-(1H-Pyrazolo[3,4-d]pyrimidin-4-yl)-quinazolin-2-ylamino]-ethyl}-phenyl)-methanesulfonamide] | –
31 | 33 | CN(Cc1ccccc1)c1ncc2cc(-c3ncnc4[nH]ncc34)ccc2n1 [Example 7, Benzyl-[6-(1H-pyrazolo[3,4-d]pyrimidin-4-yl)-quinazolin-2-yl]-methylamine] | –
